In US10597388B2, “Pyridazinone herbicides” (FMC CORPORATION, priority 2014, dated 2020):

How the values were obtained:
Assay in all cases: Test C greenhouse herbicide test, pre- and postemergence
Format in all cases: in vivo
[1] = tested on: corn (Zea mays)
Source text: (§1) Seeds of plant species selected from blackgrass (Alopecurus myosuroides), ryegrass, Italian (Italian ryegrass, Lolium multiflorum), wheat (winter wheat, Triticum aestivum), galium (catchweed bedstraw, Galium aparine), corn (Zea mays), large crabgrass, large (large crabgrass, Digitaria sanguinalis), foxtail, giant (giant foxtail, Setaria faberii), johnsongrass (Sorghum halepense), lambsquarters (Chenopodium album), morningglory (Ipomoea coccinea), nutsedge, yellow (yellow nutsedge, Cyperus esculentus), pigweed (Amaranthus retroflexus), ragweed (common ragweed, Ambrosia elatior), soybean (Glycine max), barnyardgrass (Echinochloa crus-galli), oilseed rape (Brassica napus), waterhemp (common waterhemp, Amaranthus rudis), and velvetleaf (Abutilon theophrasti) were planted into a blend of loam soil and sand and treated preemergence with test chemicals formulated in a non-phytotoxic solvent mixture which included a surfactant.
(§2) At the same time, plants selected from these crop and weed species and also chickweed (common chickweed, Stellaria media), kochia (Kochia scoparia), and oat, wild (wild oat, Avena fatua), were planted in pots containing Redi-Earth® planting medium (Scotts Company, 14111 Scottslawn Road, Marysville, Ohio 43041) comprising spaghnum peat moss, vermiculite, wetting agent and starter nutrients and treated with postemergence applications of test chemicals formulated in the same manner. Plants ranged in height from 2 to 18 cm (1- to 4-leaf stage) for postemergence treatments. Treated plants and controls were maintained in a greenhouse for 13 to 15 d, after which time all species were compared to controls and visually evaluated. Plant response ratings, summarized in Table C, are based on a scale of 0 to 100 where 0 is no effect and 100 is complete control. A dash (-) response means no test result.

[2] = tested on: lambsquarters (Chenopodium album)
Source text: as §1, §2

[3] = tested on: barnyardgrass (Echinochloa crus-galli)
Source text: as §1, §2

[4] = tested on: wheat (winter wheat, Triticum aestivum)
Source text: as §1, §2

[5] = tested on: pigweed (Amaranthus retroflexus)
Source text: as §1, §2

[6] = tested on: waterhemp (common waterhemp, Amaranthus rudis)
Source text: as §1, §2

[7] = tested on: velvetleaf (Abutilon theophrasti)
Source text: as §1, §2

[8] = tested on: nutsedge, yellow (yellow nutsedge, Cyperus esculentus)
Source text: as §1, §2

[9] = tested on: morningglory (Ipomoea coccinea)
Source text: as §1, §2

[10] = tested on: blackgrass (Alopecurus myosuroides)
Source text: as §1, §2

[11] = tested on: crabgrass, large (large crabgrass, Digitaria sanguinalis)
Source text: as §1, §2

[12] = tested on: ragweed (common ragweed, Ambrosia elatior)
Source text: as §1, §2

[13] = tested on: johnsongrass (Sorghum halepense)
Source text: as §1, §2

[14] = tested on: soybean (Glycine max)
Source text: as §1, §2

[15] = tested on: ryegrass, Italian (Italian ryegrass, Lolium multiflorum)
Source text: as §1, §2

[16] = Postemergence, 31 g ai/ha, 0 to 100 scale (0 no effect, 100 complete control)
[17] = Postemergence, 125 g ai/ha, scale 0 to 100, 0 is no effect, 100 is complete control
[18] = Postemergence, 250 g ai/ha, scale 0 to 100, 0 no effect, 100 complete control, 13 to 15 d
[19] = Preemergence, 31 g ai/ha, scale 0 to 100, 0 is no effect, 100 is complete control
[20] = Preemergence, 62 g ai/ha, scale 0 to 100, 0 is no effect, 100 is complete control
[21] = Preemergence, 125 g ai/ha, scale 0 to 100, 0 is no effect, 100 is complete control
[22] = Preemergence, 250 g ai/ha, scale 0 to 100, 0 no effect, 100 complete control
[23] = postemergence, 62 g ai/ha, scale 0 to 100, 0 no effect, 100 complete control

COC(=O)Oc1c(C)nn(C)c(=O)c1-c1c(C)sc2ccc(C)cc12 [Compound 80]
95: Lambsquarters plant response rating [2, 16] | Lambsquarters plant response rating [2, 23] | Plant response rating, Pigweed [5, 17] | Plant response rating, Pigweed [5, 18] | Plant response rating, Waterhemp [6, 18] | Velvetleaf plant response rating [7, 22] | Plant response rating, Nutsedge, Yellow [8, 18] | Plant response rating, Ragweed [12, 20] | Plant response rating, Ragweed [12, 21]
85: Barnyardgrass plant response rating [3, 22] | Pigweed plant response rating [5, 16] | Waterhemp plant response rating [6, 16] | Plant response rating, Waterhemp [6, 17] | Plant response rating, Velvetleaf [7, 20] | Plant response rating, Nutsedge, Yellow [8, 17] | Plant response rating, Morningglory [9, 19] | Plant response rating, Ryegrass, Italian [15, 17] | Plant response rating, Ryegrass, Italian [15, 18] | Ryegrass, Italian plant response rating [15, 23]
20: Plant response rating, Nutsedge, Yellow [8, 19] | Plant response rating, Soybean [14, 18]
10: Plant response rating, Corn [1, 20] | Plant response rating, Corn [1, 21] | Plant response rating, Barnyardgrass [3, 19] | Plant response rating, Wheat [4, 17] | Crabgrass, Large plant response rating [11, 16] | Plant response rating, Crabgrass, Large [11, 19]
25: Corn plant response rating [1, 22] | Barnyardgrass plant response rating [3, 16] | Plant response rating, Nutsedge, Yellow [8, 20] | Crabgrass, Large plant response rating [11, 23]
90: Plant response rating, Lambsquarters [2, 19] | Plant response rating, Lambsquarters [2, 20] | Plant response rating, Lambsquarters [2, 21] | Pigweed plant response rating [5, 23] | Plant response rating, Velvetleaf [7, 18] | Plant response rating, Velvetleaf [7, 21] | Velvetleaf plant response rating [7, 23] | Plant response rating, Morningglory [9, 20] | Plant response rating, Morningglory [9, 21] | Blackgrass plant response rating [10, 22] | Plant response rating, Ragweed [12, 19] | Ragweed plant response rating [12, 23] | Plant response rating, Ryegrass, Italian [15, 21] | Ryegrass, Italian plant response rating [15, 22]
75: Plant response rating, Barnyardgrass [3, 21] | Crabgrass, Large plant response rating [11, 22]
40: Plant response rating, Blackgrass [10, 17] | Plant response rating, Crabgrass, Large [11, 21]
55: Plant response rating, Velvetleaf [7, 17] | Plant response rating, Velvetleaf [7, 19]
30: Barnyardgrass plant response rating [3, 23] | Plant response rating, Crabgrass, Large [11, 17] | Plant response rating, Johnsongrass [13, 21]
98: Plant response rating, Lambsquarters [2, 17] | Lambsquarters plant response rating [2, 22] | Plant response rating, Morningglory [9, 18] | Morningglory plant response rating [9, 22] | Ragweed plant response rating [12, 16] | Plant response rating, Ragweed [12, 17] | Plant response rating, Ragweed [12, 18]
35: Plant response rating, Barnyardgrass [3, 17] | Plant response rating, Barnyardgrass [3, 18] | Blackgrass plant response rating [10, 23] | Plant response rating, Crabgrass, Large [11, 18] | Johnsongrass plant response rating [13, 22] | Plant response rating, Ryegrass, Italian [15, 19]
5: Plant response rating, Corn [1, 17] | Plant response rating, Corn [1, 18] | Corn plant response rating [1, 23] | Wheat plant response rating [4, 23] | Johnsongrass plant response rating [13, 16] | Plant response rating, Johnsongrass [13, 17] | Plant response rating, Johnsongrass [13, 19] | Plant response rating, Johnsongrass [13, 20] | Johnsongrass plant response rating [13, 23] | Plant response rating, Soybean [14, 17]
50: Plant response rating, Blackgrass [10, 18]
100: Plant response rating, Lambsquarters [2, 18] | Plant response rating, Pigweed [5, 19] | Plant response rating, Pigweed [5, 20] | Plant response rating, Pigweed [5, 21] | Pigweed plant response rating [5, 22] | Plant response rating, Waterhemp [6, 19] | Plant response rating, Waterhemp [6, 20] | Plant response rating, Waterhemp [6, 21] | Waterhemp plant response rating [6, 22] | Morningglory plant response rating [9, 16] | Plant response rating, Morningglory [9, 17] | Morningglory plant response rating [9, 23] | Ragweed plant response rating [12, 22]
80: Waterhemp plant response rating [6, 23] | Plant response rating, Nutsedge, Yellow [8, 21] | Nutsedge, Yellow plant response rating [8, 22] | Nutsedge, Yellow plant response rating [8, 23] | Plant response rating, Blackgrass [10, 20] | Plant response rating, Blackgrass [10, 21] | Ryegrass, Italian plant response rating [15, 16]
15: Plant response rating, Wheat [4, 18] | Blackgrass plant response rating [10, 16] | Plant response rating, Crabgrass, Large [11, 20] | Plant response rating, Johnsongrass [13, 18] | Soybean plant response rating [14, 23]
65: Plant response rating, Barnyardgrass [3, 20] | Nutsedge, Yellow plant response rating [8, 16]
0: Corn plant response rating [1, 16] | Plant response rating, Corn [1, 19] | Wheat plant response rating [4, 16] | Plant response rating, Wheat [4, 19] | Plant response rating, Wheat [4, 20] | Plant response rating, Wheat [4, 21] | Wheat plant response rating [4, 22] | Soybean plant response rating [14, 16] | Plant response rating, Soybean [14, 19] | Plant response rating, Soybean [14, 20] | Plant response rating, Soybean [14, 21] | Soybean plant response rating [14, 22]
70: Velvetleaf plant response rating [7, 16] | Plant response rating, Blackgrass [10, 19] | Plant response rating, Ryegrass, Italian [15, 20]
